Measurements: publication PMC3103600 (Journal of natural products, 2011)
Where two headings read alike, the source gives them in different places. Blank lines part the entries; values can stand above or below the compound they belong to.

Tests used:
[1] = target: Hsp90CT (C-terminal domain of Hsp90, amino acids 531–732) (Homo sapiens, UniProt P07900); assay: SPR binding to C-terminal domain of Hsp90
[2] = target: Hsp90NT (N-terminal domain of Hsp90α, amino acids 1–241) (Homo sapiens, UniProt P07900); assay: SPR binding to N-terminal domain of Hsp90
[3] = target: full length Hsp90 (human Hsp90β) (Homo sapiens, UniProt P08238); assay: SPR binding to full length Hsp90; details: full length Hsp90, 25 °C
[4] = system: Her2, Akt, Raf-1, Hsp70, Hsp90 in MCF7 cells; assay: Western blot of Hsp90 client proteins and heat shock proteins, MCF7; format: cell-based; details: MCF7, 36 h
[5] = system: heme-regulated eIF2α kinase (HRI); assay: Hsp90-dependent HRI maturation/activation in heme-deficient reticulocyte lysate; details: 45 min
[6] = system: Hsp90, Hsp70 and Cdc37 with HRI/K199R; format: biochemical; details: low ionic strength wash
native luciferase = native luciferase (Photinus pyralis, UniProt P08659); assay: Counter-screen against native luciferase; format: biochemical, firefly
[7] = system: Her2, Akt, Raf-1, Hsp70, Hsp90 in Sk-Br3 cells; assay: Western blot of Hsp90 client proteins and heat shock proteins, SkBr3; format: cell-based; details: Sk-Br3, 36 h
[8] = system: heme-regulated eIF2α kinase (HRI); assay: Stability of [35S]HRI in reticulocyte lysate; format: biochemical; details: 45 min, heme-deficient lysate

Sequence of native luciferase (P08659 whole entry): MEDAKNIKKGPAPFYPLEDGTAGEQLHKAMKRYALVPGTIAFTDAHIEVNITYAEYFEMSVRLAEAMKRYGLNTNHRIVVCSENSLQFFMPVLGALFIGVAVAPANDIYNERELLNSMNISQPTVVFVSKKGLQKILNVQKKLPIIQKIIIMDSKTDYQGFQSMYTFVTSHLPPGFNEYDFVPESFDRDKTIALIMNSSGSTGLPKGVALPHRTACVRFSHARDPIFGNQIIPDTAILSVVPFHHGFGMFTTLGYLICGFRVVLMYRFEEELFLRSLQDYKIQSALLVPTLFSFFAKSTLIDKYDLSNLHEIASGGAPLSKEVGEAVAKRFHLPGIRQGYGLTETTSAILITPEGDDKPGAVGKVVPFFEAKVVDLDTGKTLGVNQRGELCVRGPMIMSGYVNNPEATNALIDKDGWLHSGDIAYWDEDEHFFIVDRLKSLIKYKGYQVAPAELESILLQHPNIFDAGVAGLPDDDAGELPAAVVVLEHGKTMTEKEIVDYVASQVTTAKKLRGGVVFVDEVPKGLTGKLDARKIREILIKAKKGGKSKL
Sequence of full length Hsp90 (human Hsp90β) (P08238 whole entry): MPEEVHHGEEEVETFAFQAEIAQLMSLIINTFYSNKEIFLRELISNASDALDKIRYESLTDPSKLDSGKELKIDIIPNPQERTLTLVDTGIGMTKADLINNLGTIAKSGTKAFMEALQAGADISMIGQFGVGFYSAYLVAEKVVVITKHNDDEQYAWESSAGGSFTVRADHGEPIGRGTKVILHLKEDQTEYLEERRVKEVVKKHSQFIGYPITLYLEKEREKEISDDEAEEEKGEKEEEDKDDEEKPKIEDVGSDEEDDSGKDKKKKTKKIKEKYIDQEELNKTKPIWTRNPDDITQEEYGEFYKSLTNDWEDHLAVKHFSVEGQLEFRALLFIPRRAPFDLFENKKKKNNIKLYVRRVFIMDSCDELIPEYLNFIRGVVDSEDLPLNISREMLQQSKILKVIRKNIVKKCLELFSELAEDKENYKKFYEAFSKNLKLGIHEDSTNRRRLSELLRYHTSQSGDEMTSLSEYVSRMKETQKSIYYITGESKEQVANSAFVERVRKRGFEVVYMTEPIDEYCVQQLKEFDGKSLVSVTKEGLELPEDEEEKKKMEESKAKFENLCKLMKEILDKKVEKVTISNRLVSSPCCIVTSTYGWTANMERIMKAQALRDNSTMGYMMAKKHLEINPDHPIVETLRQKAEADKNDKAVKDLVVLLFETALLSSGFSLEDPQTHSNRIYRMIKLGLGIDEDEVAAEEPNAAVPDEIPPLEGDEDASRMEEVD

SMILES: CC(C)=CCC[C@]1(C)C=Cc2c(O)c3c(c(CC=C(C)C)c2O1)O[C@]12C(=C[C@@H]4C[C@H]1C(C)(C)O[C@@]2(C/C=C(/C)C(=O)O)C4=O)C3=O [Compound 1, (−)-gambogic acid]
KD [1]: no binding
ka [1]: no binding
kd [1]: no binding
kd ([2]; 25 °C): 0.01122(7) S^−1
kd ([2]; +20 µM GA in analyte buffer): 0.0114(7) S^−1
kd [3]: 0.0113(4) S^−1
depletion of Hsp90-dependent proteins Her2, Akt, Raf-1 [4]: deplete MCF7 and Sk-Br3 cells of Her2, Akt and Raf-1 in a concentration dependent fashion
induction of Hsp90 and Hsp70 expression [4]: induced Hsp90 and Hsp70 expression
effect on HRI maturation/activation ([5]; 50 µM): inhibited the maturation/ activation of HRI
effect on binding of Hsp90, Hsp70, Cdc37 to HRI/K199R ([6]; 50 µM): disrupted the binding of Hsp90, Hsp70, and Cdc37 to HRI
direct effect on the activity of native luciferase (native luciferase): Neither celastrol nor 1 had any direct effect
depletion of Hsp90-dependent proteins Her2, Akt, Raf-1 [7]: deplete MCF7 and Sk-Br3 cells of Her2, Akt and Raf-1 in a concentration dependent fashion
induction of Hsp90 and Hsp70 expression [7]: induced Hsp90 and Hsp70 expression

SMILES: CC1=C(O)C(=O)C=C2C1=CC=C1[C@@]2(C)CC[C@@]2(C)[C@@H]3C[C@](C)(C(=O)O)CC[C@]3(C)CC[C@]12C [Compound 2, celastrol]
effect on HRI maturation/activation ([5]; 100 µM): inhibited the maturation/ activation of HRI
effect on binding of Hsp90, Hsp70, Cdc37 to HRI/K199R ([6]; 100 µM): disrupted the binding of Hsp90, Hsp70, and Cdc37 to HRI
direct effect on the activity of native luciferase (native luciferase): Neither celastrol nor 1 had any direct effect

SMILES: COC1=C2C[C@@H](C)C[C@H](OC)[C@H](O)[C@@H](C)/C=C(\C)[C@H](OC(N)=O)[C@@H](OC)/C=C\C=C(/C)C(=O)NC(=CC1=O)C2=O [Compound 3, geldanamycin]
loss of [35S]HRI compared to the DMSO control ([8]; 80 µM): 0%
effect on HRI maturation/activation ([5]; 80 µM): inhibited the maturation/ activation of HRI

SMILES: CO[C@@H]1[C@@H](OC(N)=O)[C@@H](O)[C@H](Oc2ccc3c(O)c(NC(=O)c4ccc(O)c(CC=C(C)C)c4)c(=O)oc3c2C)OC1(C)C [Compound 4, novobiocin]
effect on HRI maturation/activation ([5]; 4.0 mM): also inhibited the maturation/ activation of HRI
effect on binding of Hsp90, Hsp70, Cdc37 to HRI/K199R ([6]; 4.0 mM): disrupted the interaction of Hsp90, Hsp70 and Cdc37 with HRI/K199R

SMILES: CO[C@H]1[C@H](OC(=O)c2ccc(C)[nH]2)[C@H](O)[C@@H](Oc2ccc3c(O)c(NC(=O)c4c[nH]c(C(=O)Nc5c(O)c6ccc(O[C@H]7OC(C)(C)[C@@H](OC)[C@H](OC(=O)c8ccc(C)[nH]8)[C@@H]7O)c(C)c6oc5=O)c4C)c(=O)oc3c2C)OC1(C)C [Compound 5, coumermycin A1]
effect on HRI maturation/activation ([5]; 400 µM): also inhibited the maturation/ activation of HRI
effect on binding of Hsp90, Hsp70, Cdc37 to HRI/K199R ([6]; 400 µM): disrupted the interaction of Hsp90, Hsp70 and Cdc37 with HRI/K199R

loss of [35S]HRI compared to the DMSO control ([8]; 20 mM): 10%
SMILES: [Na+].[Na+].[O]=[Mo](=[O])([O-])[O-] [molybdate, sodium molybdate]
effect on HRI maturation/activation ([5]; 20 mM): inhibited the maturation/ activation of HRI
effect on binding of Hsp90, Hsp70, Cdc37 to HRI/K199R ([6]; 20 mM): stabilized the binding of Hsp90 and Cdc37 to HRI/K199R, while not affecting the interaction of Hsp70 with HRI/K199R
